Assays:
TYRO3 = target: T1, TYRO3 (Homo sapiens, UniProt Q06418); experiment: TR-FRET kinase activity assay, TYRO3; type: biochemical; conditions: ATP at Km, 60 minutes
T1 sequence (Q06418 41-890): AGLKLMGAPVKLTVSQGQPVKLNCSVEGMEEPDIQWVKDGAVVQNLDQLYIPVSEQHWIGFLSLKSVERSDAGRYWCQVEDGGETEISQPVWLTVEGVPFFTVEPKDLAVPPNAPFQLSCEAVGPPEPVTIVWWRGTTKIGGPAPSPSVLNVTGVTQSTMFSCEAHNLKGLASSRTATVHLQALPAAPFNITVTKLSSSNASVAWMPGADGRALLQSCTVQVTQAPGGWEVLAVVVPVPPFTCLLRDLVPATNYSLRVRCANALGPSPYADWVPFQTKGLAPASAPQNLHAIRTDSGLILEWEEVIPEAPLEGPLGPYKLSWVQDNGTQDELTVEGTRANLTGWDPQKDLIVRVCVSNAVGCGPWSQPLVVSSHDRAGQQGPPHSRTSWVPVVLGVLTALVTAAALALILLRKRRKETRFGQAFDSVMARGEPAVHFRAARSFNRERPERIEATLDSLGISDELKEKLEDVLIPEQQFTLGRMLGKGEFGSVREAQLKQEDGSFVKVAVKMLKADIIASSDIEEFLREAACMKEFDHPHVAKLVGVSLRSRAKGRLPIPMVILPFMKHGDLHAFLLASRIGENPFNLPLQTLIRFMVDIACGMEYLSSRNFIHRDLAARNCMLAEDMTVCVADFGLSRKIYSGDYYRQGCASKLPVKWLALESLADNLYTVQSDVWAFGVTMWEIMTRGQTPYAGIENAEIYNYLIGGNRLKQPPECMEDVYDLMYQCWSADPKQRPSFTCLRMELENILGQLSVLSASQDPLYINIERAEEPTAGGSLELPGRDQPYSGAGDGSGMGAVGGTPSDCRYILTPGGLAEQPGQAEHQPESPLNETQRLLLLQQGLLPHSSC
Summary of the method: (§1)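 IC50 reflects the drop in TR-FRET between Eu anti-phosphotyrosine antibody and labelled peptide after a 60-minute room-temperature reaction. Buffer was 50 mM HEPES pH 7.5 with 10 mM MgCl2, 1 mM EGTA, 0.01% Brij 35 and 1 mM DTT, with ATP at Km per enzyme and EDTA quench.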

AXL = target: T2, AXL (Homo sapiens, UniProt P30530); experiment: TR-FRET kinase activity assay, AXL; type: biochemical; conditions: ATP at Km, 60 minutes
T2 sequence (P30530 26-894): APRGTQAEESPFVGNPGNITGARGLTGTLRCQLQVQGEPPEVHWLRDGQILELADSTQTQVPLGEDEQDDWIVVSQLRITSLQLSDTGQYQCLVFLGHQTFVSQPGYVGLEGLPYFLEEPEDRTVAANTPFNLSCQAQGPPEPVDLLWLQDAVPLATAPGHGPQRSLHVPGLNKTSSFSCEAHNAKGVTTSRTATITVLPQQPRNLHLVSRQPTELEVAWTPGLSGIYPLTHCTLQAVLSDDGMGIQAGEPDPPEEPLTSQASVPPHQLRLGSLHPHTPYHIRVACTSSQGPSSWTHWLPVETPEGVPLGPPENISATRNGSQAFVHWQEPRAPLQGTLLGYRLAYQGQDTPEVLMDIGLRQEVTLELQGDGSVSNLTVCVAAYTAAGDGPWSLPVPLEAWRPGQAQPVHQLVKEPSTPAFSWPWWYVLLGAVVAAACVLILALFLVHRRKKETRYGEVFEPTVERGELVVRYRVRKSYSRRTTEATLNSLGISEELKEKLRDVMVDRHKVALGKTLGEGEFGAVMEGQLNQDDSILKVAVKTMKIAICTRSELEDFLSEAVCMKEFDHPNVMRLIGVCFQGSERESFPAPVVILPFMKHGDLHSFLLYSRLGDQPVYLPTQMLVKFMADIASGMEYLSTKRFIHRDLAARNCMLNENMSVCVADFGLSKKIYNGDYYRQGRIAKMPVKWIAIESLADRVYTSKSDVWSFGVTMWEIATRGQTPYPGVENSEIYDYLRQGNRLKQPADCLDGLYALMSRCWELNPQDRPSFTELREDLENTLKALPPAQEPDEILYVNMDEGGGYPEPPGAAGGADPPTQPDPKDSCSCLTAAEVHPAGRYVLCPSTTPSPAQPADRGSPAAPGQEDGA
Summary of the method: as §1

Row | SMILES | IC50 (TYRO3) [nM] | IC50 (AXL) [nM]
1 | [2H]C([2H])([2H])OCC(C)Nc1ncc2c(-c3cnn(C4COC4)c3)cc(C3CCC(O)CC3)n2n1 (centres unmarked) [Compound 630] | ≤ 100 | ≤ 100
2 | COC[C@H](C)Nc1ncc2c(-c3cnn(CCN4CCOCC4)c3)cc([C@H]3CC[C@H](O)CC3)n2n1 [Compound 153] | ≤ 100 | 100 to 1000
3 | COC[C@H](C)Nc1ncc2c(-c3ccc([C@@H](C)N4CCOCC4)cc3)cc([C@H]3CC[C@H](O)CC3)n2n1 [Compound 156] | ≤ 100 | ≤ 100
4 | COC[C@H](C)Nc1ncc2c(-c3cnn(C(C)(C)C(=O)N4CCC(C)(O)C4)c3)cc([C@H]3CC[C@H](O)CC3)n2n1 (some centres unmarked) [Compound 620] | ≤ 100 | ≤ 100
5 | COC[C@H](C)Nc1ncc2c(-c3cnn(CC(C)C)c3)cc([C@H]3CC[C@H](O)CC3)n2n1 [Compound 167] | ≤ 100 | ≤ 100
6 | COC[C@H](C)Nc1ncc2c(-c3ccnc(C(C)(C)O)c3)cc([C@H]3CC[C@H](O)CC3)n2n1 [Compound 619] | ≤ 100 | ≤ 100
7 | COC[C@H](C)Nc1ncc2c(-c3ccnc(S(C)(=O)=O)c3)cc(C3CCC(O)CC3)n2n1 (some centres unmarked) [Compound 627] | ≤ 100 | ≤ 100
8 | COC[C@H](C)Nc1ncc2c(-c3ccc(C4(C(=O)N5CCOCC5)CC4)cc3)cc([C@H]3CC[C@H](O)CC3)n2n1 [Compound 171] | ≤ 100 | ≤ 100
9 | COC[C@H](C)Nc1ncc2c(-c3cnn(C(C)(C)c4nnc(C(F)(F)F)o4)c3)cc([C@H]3CC[C@H](O)CC3)n2n1 [Compound 603] | ≤ 100 | ≤ 100
10 | COCC(C)Nc1ncc2c(-c3cccc(C(C)N4CCCC4)c3)cc(C3CCC(O)CC3)n2n1 (centres unmarked) [Compound 158] | ≤ 100 | ≤ 100
11 | COC[C@H](C)Nc1ncc2c(-c3cnn(CC(=O)NS(C)(=O)=O)c3)cc([C@H]3CC[C@H](O)CC3)n2n1 [Compound 174] | ≤ 100 | 100 to 1000
12 | [2H]C([2H])([2H])OCC(C)Nc1ncc2c(-c3ccnc(N4CCOCC4)c3)cc(C3CCC(O)CC3)n2n1 (centres unmarked) [Compound 629] | ≤ 100 | ≤ 100
13 | C[C@@H](CC(F)(F)F)Nc1ncc2c(-c3cnn(C(C)(C)C(=O)N4CC5(COC5)C4)c3)cc([C@H]3CC[C@H](O)CC3)n2n1 [Compound 608] | ≤ 100 | ≤ 100
14 | COCC(C)Nc1ncc2c(-c3ccc(C(C)N4CCOCC4)cc3)cc(C3CCC(O)CC3)n2n1 (mixture of isomers) [Compound 180] | ≤ 100 | 100 to 1000
15 | COC[C@H](C)Nc1ncc2c(-c3cnn(C(C)(C)c4nnc([C@H]5CCCO5)o4)c3)cc([C@H]3CC[C@H](O)CC3)n2n1 [Compound 602] | ≤ 100 | ≤ 100
16 | COC[C@H](C)Nc1ncc2c(-c3cnn(C(C)(C)c4nnc([C@@H]5CCCO5)o4)c3)cc([C@H]3CC[C@H](O)CC3)n2n1 [Compound 601] | ≤ 100 | ≤ 100
17 | COC[C@H](C)Nc1ncc2c(-c3cnn(CC(=O)N4CCOCC4)c3)cc([C@H]3CC[C@H](O)CC3)n2n1 [Compound 162] | ≤ 100 | ≤ 100
18 | COC[C@H](C)Nc1ncc2c(-c3ccnc(N4CC(C)(O)C4)c3)cc(C3CCC(O)CC3)n2n1 (some centres unmarked) [Compound 632] | ≤ 100 | ≤ 100
19 | CC[C@]1(O)CC[C@@H](c2cc(-c3cnn(C4COC4)c3)c3cnc(N[C@@H](C)COC)nn32)CC1 [Compound 616] | ≤ 100 | ≤ 100
20 | COC[C@H](C)Nc1ncc2c(C3=CC4CCC(C3)N4)cc([C@H]3CC[C@H](O)CC3)n2n1 (some centres unmarked) [Compound 170] | ≤ 100 | ≤ 100
21 | COC[C@H](C)Nc1ncc2c(-c3cnn(C(C)(C)c4ncc(C)o4)c3)cc(C3CCC(O)CC3)n2n1 (some centres unmarked) [Compound 628] | ≤ 100 | ≤ 100
22 | COC[C@H](C)Nc1ncc2c(-c3cnn(C(C)(C)c4nnc(C(C)C)o4)c3)cc([C@H]3CC[C@H](O)CC3)n2n1 [Compound 600] | ≤ 100 | ≤ 100

Reference: patent publication US11040981B2, “Pyrrolotriazine compounds and methods of inhibiting TAM kinases” (Syros Pharmaceuticals, Inc., priority 2017, dated 2021)
